pEC50, pKi: −log10 of the molar value.

In one assay the target is Dopamine-D2 (Homo sapiens, UniProt P14416). The assay is described as follows: In vitro receptor affinity, Dopamine-D2. Type of assay: binding. The method, then: (§1) The binding data collected in the table below (Example 5: pharmacological test results) were either obtained by CEREP (128, rue Danton, 92500 Rueil-Malmaison, France) or at Solvay Pharmaceuticals B.V. (C. J. van Houtenlaan 36, 1381 CP Weesp, The Netherlands), using well documented standard procedures. The affinities for dopamine-D2 and 5-HT1A receptors for instance, was measured as described by Creese I, Schneider R and Snyder S H, [^3H]-Spiroperidol labels dopamine receptors in rat pituitary and brain, Eur J Pharmacol […], 46: 377-381 and Gozlan H, El Mestikawy S, Pichat L, Glowinsky J and Hamon M, 1983, Identification of presynaptic serotonin autoreceptors using a new ligand ^3H-PAT, Nature 1983, 305: 140-142.

Another assay has as its target Dopamine-D2S (Homo sapiens, UniProt P14416). Put plainly: In vitro receptor affinity, Dopamine-D2S. Type of assay: binding. The method, then: as §1
Another assay deals with Dopamine-D5 (Homo sapiens, UniProt P21918). Put plainly: In vitro receptor affinity, Dopamine-D5. Type of assay: binding. The method, then: as §1
Another assay addresses 5-HT1A (Homo sapiens, UniProt P08908). Put plainly: In vitro receptor affinity, 5-HT1A. Type of assay: binding. Here is the method:
as §1

The target in another assay is 5-HT1D. Put plainly: In vitro receptor affinity, 5-HT1D. As to conditions: bovine; radioligand [3H]-serotonin. The format is binding. The method, then: as §1
The next assay deals with 5-HT2A (Homo sapiens, UniProt P28223). Put plainly: In vitro receptor affinity, 5-HT2A. Type of assay: binding. Here is the method: as §1
A further assay deals with 5-HT2C (Homo sapiens, UniProt P28335). Put plainly: In vitro receptor affinity, 5-HT2C. Type of assay: binding. The method, then:
as §1

The next assay deals with 5-HT3 (Rattus norvegicus, UniProt P35563). Put plainly: In vitro receptor affinity, 5-HT3. Type of assay: binding. The method, then: as §1
The next assay has as its target 5-HT7 (Homo sapiens, UniProt P34969). The assay is described as follows: In vitro receptor affinity, 5-HT7. Type of assay: binding. The method, then:
as §1

Another assay concerns the target α1-adrenergic. Put plainly: In vitro receptor affinity, α1-adrenergic. Type of assay: binding. As to conditions: rat; radioligand [3H]-prazosin. The method, then: as §1
The target in a further assay is β1-adrenergic (Homo sapiens, UniProt P08588). Put plainly: In vitro receptor affinity, β1-adrenergic. Type of assay: binding. The method, then: as §1
The target in a further assay is κ-opiate (Rattus norvegicus, UniProt P34975). The assay is described as follows: In vitro receptor affinity, κ-opiate. The format is binding. Here is the method: as §1
Assay [1] addresses T1, Human dopamine-D3 receptor (Homo sapiens, UniProt P35462).
T1 construct: expressed in transfected cells
The assay is described as follows: In vitro functional receptor activity. Type of assay: cell-based.

T1 sequence (P35462 whole entry): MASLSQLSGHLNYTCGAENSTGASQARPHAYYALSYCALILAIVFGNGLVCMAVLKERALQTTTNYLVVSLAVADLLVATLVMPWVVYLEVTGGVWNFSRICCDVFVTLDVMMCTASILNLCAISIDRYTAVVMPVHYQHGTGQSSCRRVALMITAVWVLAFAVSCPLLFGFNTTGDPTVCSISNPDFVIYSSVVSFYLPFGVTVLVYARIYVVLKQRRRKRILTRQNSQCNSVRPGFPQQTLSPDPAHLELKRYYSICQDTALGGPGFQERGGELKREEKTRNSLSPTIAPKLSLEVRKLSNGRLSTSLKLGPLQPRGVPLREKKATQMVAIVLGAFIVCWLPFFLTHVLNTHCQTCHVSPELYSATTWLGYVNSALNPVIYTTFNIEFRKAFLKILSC
Sequence of Dopamine-D2 (P14416 whole entry): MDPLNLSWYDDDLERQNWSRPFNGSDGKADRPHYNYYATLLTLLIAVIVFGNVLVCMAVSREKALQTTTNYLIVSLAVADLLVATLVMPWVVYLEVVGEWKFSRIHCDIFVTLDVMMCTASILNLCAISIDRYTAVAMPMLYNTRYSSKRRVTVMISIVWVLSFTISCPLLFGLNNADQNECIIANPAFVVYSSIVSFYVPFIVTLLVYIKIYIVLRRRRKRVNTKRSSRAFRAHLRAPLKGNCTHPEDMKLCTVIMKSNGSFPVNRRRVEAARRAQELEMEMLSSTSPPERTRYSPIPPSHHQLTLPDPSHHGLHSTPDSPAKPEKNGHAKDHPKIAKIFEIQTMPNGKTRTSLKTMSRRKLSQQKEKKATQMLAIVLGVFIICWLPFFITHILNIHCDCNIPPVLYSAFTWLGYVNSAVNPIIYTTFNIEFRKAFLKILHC
Sequence of Dopamine-D5 (P21918 whole entry): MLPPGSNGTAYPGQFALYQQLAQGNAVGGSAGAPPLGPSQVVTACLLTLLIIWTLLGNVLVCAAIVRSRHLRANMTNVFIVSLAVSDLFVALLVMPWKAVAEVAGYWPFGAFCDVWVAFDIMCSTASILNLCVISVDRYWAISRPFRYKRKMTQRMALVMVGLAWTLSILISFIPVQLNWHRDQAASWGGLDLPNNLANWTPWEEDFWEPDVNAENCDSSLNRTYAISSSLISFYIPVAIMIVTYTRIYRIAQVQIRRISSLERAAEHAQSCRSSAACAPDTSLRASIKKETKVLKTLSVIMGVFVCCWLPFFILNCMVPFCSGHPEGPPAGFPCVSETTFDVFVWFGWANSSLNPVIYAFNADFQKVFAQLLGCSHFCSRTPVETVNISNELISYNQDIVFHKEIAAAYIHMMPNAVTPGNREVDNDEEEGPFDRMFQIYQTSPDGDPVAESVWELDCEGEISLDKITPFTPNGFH
Sequence of 5-HT2C (P28335 33-458): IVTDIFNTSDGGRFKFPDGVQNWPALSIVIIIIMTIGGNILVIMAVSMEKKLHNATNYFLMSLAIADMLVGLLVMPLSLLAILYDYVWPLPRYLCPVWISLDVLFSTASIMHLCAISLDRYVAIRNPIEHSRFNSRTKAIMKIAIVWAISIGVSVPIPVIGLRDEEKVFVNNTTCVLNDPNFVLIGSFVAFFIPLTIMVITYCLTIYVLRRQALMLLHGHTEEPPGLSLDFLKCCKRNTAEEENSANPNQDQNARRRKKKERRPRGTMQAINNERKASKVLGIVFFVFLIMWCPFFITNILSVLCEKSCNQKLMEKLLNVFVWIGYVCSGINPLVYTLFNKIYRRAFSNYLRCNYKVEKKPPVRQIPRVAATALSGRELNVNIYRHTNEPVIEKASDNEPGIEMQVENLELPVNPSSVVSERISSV
Sequence of 5-HT1A (P08908 whole entry): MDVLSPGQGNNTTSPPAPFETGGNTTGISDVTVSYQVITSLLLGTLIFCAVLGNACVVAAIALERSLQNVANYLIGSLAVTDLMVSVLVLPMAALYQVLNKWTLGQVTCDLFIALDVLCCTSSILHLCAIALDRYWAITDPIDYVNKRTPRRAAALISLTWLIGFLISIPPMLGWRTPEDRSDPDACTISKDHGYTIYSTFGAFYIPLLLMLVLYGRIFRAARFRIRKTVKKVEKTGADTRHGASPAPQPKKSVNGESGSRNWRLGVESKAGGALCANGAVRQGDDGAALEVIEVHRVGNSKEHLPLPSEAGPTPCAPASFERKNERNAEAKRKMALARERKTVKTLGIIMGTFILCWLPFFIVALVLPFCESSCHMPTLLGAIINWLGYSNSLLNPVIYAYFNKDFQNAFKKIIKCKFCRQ
Sequence of 5-HT2A (P28223 whole entry): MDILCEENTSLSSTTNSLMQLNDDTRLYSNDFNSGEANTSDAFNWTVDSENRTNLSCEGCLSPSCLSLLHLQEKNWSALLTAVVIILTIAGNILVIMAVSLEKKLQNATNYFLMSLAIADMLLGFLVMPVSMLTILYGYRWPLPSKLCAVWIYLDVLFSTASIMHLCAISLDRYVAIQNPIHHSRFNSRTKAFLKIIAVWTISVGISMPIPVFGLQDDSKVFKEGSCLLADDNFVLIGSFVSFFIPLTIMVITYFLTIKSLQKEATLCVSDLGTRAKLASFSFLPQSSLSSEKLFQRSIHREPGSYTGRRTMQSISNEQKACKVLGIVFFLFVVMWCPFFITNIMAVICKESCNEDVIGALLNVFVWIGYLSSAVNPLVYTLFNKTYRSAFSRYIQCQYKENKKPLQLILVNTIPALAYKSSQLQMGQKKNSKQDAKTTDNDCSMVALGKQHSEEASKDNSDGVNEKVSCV
Sequence of Dopamine-D2S (P14416 1-414 isoform P14416-2): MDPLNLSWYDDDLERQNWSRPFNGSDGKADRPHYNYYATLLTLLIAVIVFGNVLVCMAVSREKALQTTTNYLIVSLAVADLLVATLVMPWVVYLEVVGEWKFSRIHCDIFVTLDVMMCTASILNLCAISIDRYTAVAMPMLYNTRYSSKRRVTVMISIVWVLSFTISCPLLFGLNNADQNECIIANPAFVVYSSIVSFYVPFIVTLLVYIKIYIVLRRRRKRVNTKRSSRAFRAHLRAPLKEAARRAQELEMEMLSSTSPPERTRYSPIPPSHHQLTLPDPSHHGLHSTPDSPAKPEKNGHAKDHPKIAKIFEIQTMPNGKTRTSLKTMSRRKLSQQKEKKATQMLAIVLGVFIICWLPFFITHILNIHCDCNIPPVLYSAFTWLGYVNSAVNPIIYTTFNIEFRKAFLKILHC
Sequence of 5-HT3 (P35563 24-483): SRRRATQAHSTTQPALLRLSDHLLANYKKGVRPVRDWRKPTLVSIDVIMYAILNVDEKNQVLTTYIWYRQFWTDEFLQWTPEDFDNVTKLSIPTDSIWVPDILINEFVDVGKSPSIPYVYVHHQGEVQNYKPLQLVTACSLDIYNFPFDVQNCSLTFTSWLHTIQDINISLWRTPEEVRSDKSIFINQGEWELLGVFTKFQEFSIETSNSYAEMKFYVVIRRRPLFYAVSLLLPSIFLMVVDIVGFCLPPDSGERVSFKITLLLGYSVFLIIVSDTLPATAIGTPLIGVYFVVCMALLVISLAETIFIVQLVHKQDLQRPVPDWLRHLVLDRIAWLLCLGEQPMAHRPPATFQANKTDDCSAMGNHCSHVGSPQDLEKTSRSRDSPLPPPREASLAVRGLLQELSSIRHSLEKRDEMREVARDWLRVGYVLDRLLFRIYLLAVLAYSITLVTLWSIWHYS
Sequence of κ-opiate (P34975 whole entry): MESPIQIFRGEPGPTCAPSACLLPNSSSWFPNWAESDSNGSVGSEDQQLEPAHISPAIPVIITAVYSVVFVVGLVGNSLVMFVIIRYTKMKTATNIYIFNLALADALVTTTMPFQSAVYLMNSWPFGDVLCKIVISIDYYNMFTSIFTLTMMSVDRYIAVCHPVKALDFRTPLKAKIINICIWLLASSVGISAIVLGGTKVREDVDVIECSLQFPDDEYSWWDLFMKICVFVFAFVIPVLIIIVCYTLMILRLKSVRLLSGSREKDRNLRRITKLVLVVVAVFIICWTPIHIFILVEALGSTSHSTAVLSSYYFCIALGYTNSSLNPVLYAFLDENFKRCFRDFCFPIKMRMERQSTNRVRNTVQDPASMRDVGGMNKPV
Sequence of 5-HT7 (P34969 whole entry): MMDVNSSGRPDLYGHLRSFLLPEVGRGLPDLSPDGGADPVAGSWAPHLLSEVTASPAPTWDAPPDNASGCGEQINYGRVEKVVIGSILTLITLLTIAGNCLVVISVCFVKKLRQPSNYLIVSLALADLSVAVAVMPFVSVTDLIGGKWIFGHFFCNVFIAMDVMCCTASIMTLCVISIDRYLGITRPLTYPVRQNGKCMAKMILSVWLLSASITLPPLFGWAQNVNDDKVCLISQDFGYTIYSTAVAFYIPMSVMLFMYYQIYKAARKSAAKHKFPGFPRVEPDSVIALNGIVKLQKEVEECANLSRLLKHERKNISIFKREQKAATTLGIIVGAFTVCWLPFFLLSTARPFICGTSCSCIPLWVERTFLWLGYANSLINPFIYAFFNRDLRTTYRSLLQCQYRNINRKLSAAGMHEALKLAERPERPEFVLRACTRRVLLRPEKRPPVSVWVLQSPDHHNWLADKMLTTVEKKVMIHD
Sequence of β1-adrenergic (P08588 whole entry): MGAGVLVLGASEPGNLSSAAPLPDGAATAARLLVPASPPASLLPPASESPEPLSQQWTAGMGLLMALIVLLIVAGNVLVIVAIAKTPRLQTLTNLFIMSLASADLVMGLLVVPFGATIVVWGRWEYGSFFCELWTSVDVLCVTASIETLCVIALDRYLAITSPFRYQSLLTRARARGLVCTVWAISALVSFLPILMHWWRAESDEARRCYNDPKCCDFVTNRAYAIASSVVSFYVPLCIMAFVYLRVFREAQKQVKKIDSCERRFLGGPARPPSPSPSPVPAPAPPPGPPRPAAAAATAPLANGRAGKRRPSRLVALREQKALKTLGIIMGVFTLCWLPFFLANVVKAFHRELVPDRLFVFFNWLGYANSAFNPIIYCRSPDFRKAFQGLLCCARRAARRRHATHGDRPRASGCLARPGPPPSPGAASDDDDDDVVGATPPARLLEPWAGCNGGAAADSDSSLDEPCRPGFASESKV

As to `C[N+]1([O-])CCN(c2cccc3[nH]c(=O)oc23)CC1` [N-oxide of SLV308, N-Oxide of SLV308], the pKi was below 6.00 on Dopamine-D2; below 6.00 at Dopamine-D2S; below 6.00 on Dopamine-D5; 6.70 at 5-HT1A; below 6.00 at 5-HT1D; below 6.00 at 5-HT2A. Moreover, the pKi on 5-HT2C, at 5-HT3, at 5-HT7, on α1-adrenergic, at β1-adrenergic and on κ-opiate was below 6.00 each time. Besides, at Dopamine-D2 (potency ratio), the “Factor by which dopamine-D2 receptor affinities differ (N-oxide vs SLV308)” value is at least 100. In assay [1], this compound showed a pEC50 of 7.30. In addition, the “Human dopamine-D3 receptor intrinsic activity (α)” value in assay [1] was found to be 0.60. In assay [1], this compound registered a Kb above 10000 nM.

A word on the pKi: it is the Ki on a negative log10 scale, so that one unit is a factor of ten. A higher pKi goes with a low Ki. By pEC50 is commonly meant the EC50 on a negative log10 scale, so that one unit is a factor of ten. Low values mean a large EC50, high ones a small EC50.
